Assay results: patent publication US20230037905A1 (Vyne Therapeutics Inc., priority 2019, published 2023)
Counter-ions that a name gives are not always drawn.

How the values were obtained:
[1] = system: Reconstructed Human Epidermis (RHE) tissues exposed to Th2 cytokines IL-4, IL-13, IL-25; assay: Reconstructed Human Epidermis (RHE) Th2 AD model (StratiCELL); format: cell-based; details: 48 h
Procedure: Reconstructed Human Epidermis (RHE) tissues are produced and grown by StratiCELL. To generate the morphological and functional aspects of AD, RHE samples are exposed to Th2 cytokines IL-4, IL-13, IL-25. Th-2 cytokines are applied for 48 h in the culture medium of epidermis. Test formulations are applied simultaneously with the cytokines on the stratum corneum of the epidermis during the same 48 h. The tissue morphology is assessed by histology and hemalum/eosin (H/E) staining—quantification of a fluorescent dye (biotin) diffusion through the epidermis in order to evaluate the barrier function.

[2] = Stability of Tofacitinib Citrate solution in 50 mM citrate buffer of different pH at 60° C.; format: physicochemical; design: unit not given here
Text: In one or more embodiments the pH, is about 4, about 4.1, about 4.2, about 4.3, about 4.4, about 4.5, about 4.6, about 4.7, about 4.8, about 4.9 or about 5.

[3] = Compatibility test of tofacitinib citrate with excipients at 60° C.; format: physicochemical; design: TOF assay: unit not given here; details: 10 weeks at 60° C.
Procedure: The mixtures are tightly closed and exposed to 60° C. protected from light.

[4] = Solubility test (saturated solutions, HPLC); format: physicochemical
Procedure: An additional analysis is performed after 48 hours of agitation to confirm the determined saturated concentration.

[5] = Stability of Tofacitinib Citrate solution in 50 mM citrate buffer of different pH at 60° C.; format: physicochemical; design: unit not given here; remark: listed apart in the source
in vivo = assay: in vivo; design: species or system Minipigs; details: minipig, Tofacitinib concentration
Procedure: Minipigs are treated topically on 10% body surface area, once daily for 14 days with the tested formulation.

[6] = Chemical stability of formulations (HPLC); format: physicochemical
Procedure: Where another active agent such as fingolimod is present in the formulations the samples are analysed for that active agent and its degradation products by HPLC. […] The gradient elution is employed.

[7] = target: S1P receptors (S1P1 and S1P3-5); details: four of the five S1P receptors (S1P1 and S1P3-5); read-out: affinity; cited from earlier work
[8] = in Water + Carboxymethylcellulose
[9] = in Water + Glyceryl Monosteatate

CCCCCCCCc1ccc(CCC(N)(CO)CO)cc1 [Fingolimod, 2-amino-2-[2-(4-octylphenyl)ethyl]propane-1,3-diol]
barrier function (biotin immunofluorescence) ([1]; 0.001% w/w): reduced the Th2-induced barrier alteration | tissue morphology (histology, H/E staining) ([1]; 0.001% w/w): reduced the Th2-induced barrier alteration | barrier function (biotin immunofluorescence) ([1]; 0.01% w/w): reduced the Th2-induced barrier alteration | tissue morphology (histology, H/E staining) ([1]; 0.01% w/w): reduced the Th2-induced barrier alteration | tissue morphology (histology, H/E staining) ([1]; 0.1% w/w): increased fragilization was observed with junction/adhesion loss and disorganization of cell layers | barrier function (biotin immunofluorescence) ([1]; 0.1%): Increased barrier alteration | tissue morphology (histology, H/E staining) ([1]; 1% w/w): increased fragilization was observed with junction/adhesion loss and disorganization of cell layers | barrier function (biotin immunofluorescence) ([1]; 1%): Increased barrier alteration

C[C@@H]1CCN(C(=O)CC#N)C[C@@H]1N(C)c1ncnc2[nH]ccc12 [Tofacitinib citrate]
TOF assay ([2]; pH 4, 2 w): 106.31 | TOF assay ([2]; pH 4.5, 1 w): 108.64 | TOF assay ([2]; pH 4.5, 2 w): 99.84 | RRT 1.42 (impurity) ([2]; pH 5, 2 w): 0.14 | TOF assay ([2]; pH 5, 2 w): 101.02 | Deg. products ([3]; in MCT oil): 0.09 | TOF assay ([3]; in MCT oil): 108.4 | Deg. products [3, 8]: 9.33 | TOF assay [3, 8]: 48.1 | Deg. products ([3]; in Water + Ceteareth 20): 4.57 | TOF assay ([3]; in Water + Ceteareth 20): 67.7 | Deg. products ([3]; in Water + Glycerin): 10.16 | TOF assay ([3]; in Water + Glycerin): 63.9 | Deg. products [3, 9]: 2.62 | TOF assay [3, 9]: 75.6 | Deg. products ([3]; in Water + Hypermellose K100M): 4.64 | TOF assay ([3]; in Water + Hypermellose K100M): 14.2 | Deg. products ([3]; in Water + Methyl Paraben): 4.14 | TOF assay ([3]; in Water + Methyl Paraben): 81.6 | Deg. products ([3]; in Water + Propyl Paraben): 3.01 | TOF assay ([3]; in Water + Propyl Paraben): 93.0 | Deg. products ([3]; in Water + Stearic Acid): 3.64 | TOF assay ([3]; in Water + Stearic Acid): 79.4 | Deg. products ([3]; in Water + Stearyl Alcohol): 2.21 | TOF assay ([3]; in Water + Stearyl Alcohol): 73.1 | Deg. products ([3]; in Water + Xanthan Gum): 28.23 | TOF assay ([3]; in Water + Xanthan Gum): 7.7 | Deg. products ([3]; in Water): 1.90 | TOF assay ([3]; in Water): 106.7 | Solubility of TOF Citrate ([4]; in 0.02% HCl): 4.06 mg/g | Solubility of TOF Citrate ([4]; in 0.05% NaOH (degraded)): not detected | Solubility of TOF Citrate ([4]; in Benzyl Alcohol): 0.81 mg/g | Solubility of TOF Citrate ([4]; in DMSO): >150 mg/g | solubilized tofacitinib citrate concentration ([4]; in DMSO): > 15% | Solubility of TOF Citrate ([4]; in Diisopropyl adipate): 0.02 mg/g | Solubility of TOF Citrate ([4]; in Dimethyl isosorbate): 1.27 mg/g | Solubility of TOF Citrate ([4]; in Ethanol): 0.61 mg/g | Solubility of TOF Citrate ([4]; in Glycerin): 0.97 mg/g | Solubility of TOF Citrate ([4]; in Hexylene Glycol): 0.25 mg/g | Solubility of TOF Citrate ([4]; in Isopropyl Alcohol): 0.24 mg/g | Solubility of TOF Citrate ([4]; in Isopropyl myristate): <0.02 mg/g | Solubility of TOF Citrate ([4]; in MCT oil (Caprylic/capric triglycerides)): <0.01 mg/g | Solubility of TOF Citrate ([4]; in Oleyl alcohol): 0.09 mg/g | Solubility of TOF Citrate ([4]; in PPG-11 Stearyl ether): 0.02 mg/g | Solubility of TOF Citrate ([4]; in Propylene Glycol): 1.70 mg/g | Solubility of TOF Citrate ([4]; in Transcutol): 2.01 mg/g | Solubility of TOF Citrate ([4]; in Water): 2.77 mg/g | Solubility of TOF Citrate ([4]; in polyethylene glycol 200): 5.16 mg/g | solubilized tofacitinib citrate concentration ([4]; in polyethylene glycol 200): about 0.5% | Solubility of TOF Citrate ([4]; in polyethylene glycol 400): 6.96 mg/g | solubilized tofacitinib citrate concentration ([4]; in polyethylene glycol 400): about 0.7% | RRT 0.48 (impurity) ([5]; pH 3, 1 w): 0.10 | RRT 0.89 (impurity) ([5]; pH 3, 1 w): 0.10 | TOF assay ([5]; pH 3, 1 w): 93.92 | RRT 0.40 (impurity) ([5]; pH 3, 2 w): 0.09 | RRT 0.48 (impurity) ([5]; pH 3, 2 w): 0.11 | RRT 0.89 (impurity) ([5]; pH 3, 2 w): 0.09 | RRT 1.42 (impurity) ([5]; pH 3, 2 w): 0.09 | TOF assay ([5]; pH 3, 2 w): 100.09 | Imp B ([5]; pH 4, 1 w): 0.09 | TOF assay ([5]; pH 4, 1 w): 102.57 | RRT 1.42 (impurity) ([5]; pH 5, 1 w): 0.14 | RRT 0.80 (impurity) ([5]; pH 5, 2 w): 0.08 | TOF assay ([5]; pH 6, 1 w): 99.67 | RRT 0.89 (impurity) ([5]; pH 6, 2 w): 0.09 | TOF assay ([5]; pH 6, 2 w): 100.09

C[C@@H]1CCN(C(=O)CC#N)C[C@@H]1N(C)c1ncnc2[nH]ccc12 [Tofacitinib]
concentration at 4 h (in vivo): 1.48 ng/mL | concentration at 8 h (in vivo): 1.32 ng/mL | concentration at 24 h (in vivo): 0.688 ng/mL

CCCCCCCCc1ccc(CCC(N)(CO)CO)cc1 [fingolimod hydrochloride, Fingolimod hydrochloride]
chemical stability of active agent in formulation [6]: stable at 5° C., 40 °C and 50 °C

CCCCCCCCc1ccc(CC[C@](N)(CO)COP(=O)(O)O)cc1 [fingolimod-phosphate]
Kd [7]: 0.3 to 3.1 nM
